Our source for the IC50 values is patent US11446287B2, “Compounds and methods for EP300 or CBP modulation and indications therefor” (Opna Immuno-Oncology SA, priority 2019, dated 2022).

For the test, the target named is T1, Recombinant human BRD4 containing dual bromodomains (BRD4-BD12 (1-477)) (Homo sapiens, UniProt O60885).
T1 construct: Recombinant human BRD4 containing dual bromodomains (BRD4-BD12 (1-477)); made in house; host or cells: E. coli BL21-CodonPlus (DE3), modified pET vector
Nature of the test: BRD4 Alphascreen binding assay. The method, boiled down: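 His-tagged human BRD4 tandem bromodomains (1-477, E. coli) incubated 1 h at room temperature with biotinylated tetra-acetylated H4 (1-21) peptide and compound in HEPES pH 7.5 buffer with 2 mM DTT. AlphaScreen signal read 30 min after adding beads (7.5 μg/ml); IC50 from four-parameter fit after normalization to controls.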
(In general: Alpha assays give light when donor and acceptor beads are brought close together.)

For the compound `Cc1noc(C)c1-c1cnc2c(c1)c(-c1ccc(C(=O)O)cc1Cl)cn2C(c1ccccn1)C1CCCC1` (centres unmarked) [P-0027, 3-chloro-4-(1-(cyclopentyl(pyridin-2-yl)methyl)-5-(3,5-dimethylisoxazol-4-yl)-1H-pyrrolo[2,3-b]pyridin-3-yl)benzoic acid], the 50% inhibitory concentration (IC50) (in general, the midpoint of a concentration-inhibition curve) was 1 to 8 µM. Regarding `Cc1cc(-c2cn(C(c3ccccn3)C3CCCC3)c3ncc(-c4c(C)noc4C)cc23)ccc1C(=O)O` (centres unmarked) [P-0028, 4-(1-(cyclopentyl(pyridin-2-yl)methyl)-5-(3,5-dimethylisoxazol-4-yl)-1H-pyrrolo[2,3-b]pyridin-3-yl)-2-methylbenzoic acid], the 50% inhibitory concentration (IC50) lay within 1 to 8 µM. The figure for `Cc1noc(C)c1-c1cnc2c(c1)c(-c1ccc(C(=O)O)c(C(F)(F)F)c1)cn2C(c1ccccn1)C1CCCC1` (centres unmarked) [P-0029, 4-(1-(cyclopentyl(pyridin-2-yl)methyl)-5-(3,5-dimethylisoxazol-4-yl)-1H-pyrrolo[2,3-b]pyridin-3-yl)-2-(trifluoromethyl)benzoic acid] is 1 to 8 µM; for `Cc1noc(C)c1-c1cnc2c(c1)c(-c1ccc(C(=O)O)c(O)c1)cn2C(c1ccccn1)C1CCCC1` (centres unmarked) [P-0030, 4-(1-(cyclopentyl(pyridin-2-yl)methyl)-5-(3,5-dimethylisoxazol-4-yl)-1H-pyrrolo[2,3-b]pyridin-3-yl)-2-hydroxybenzoic acid] it is 8 to 1000 µM. The same measure for `Cc1noc(C)c1-c1cnc2c(c1)c(-c1ccc(CC(=O)O)cc1)cn2C(c1ccccn1)C1CCCC1` (centres unmarked) [P-0031, 2-(4-(1-(cyclopentyl(pyridin-2-yl)methyl)-5-(3,5-dimethylisoxazol-4-yl)-1H-pyrrolo[2,3-b]pyridin-3-yl)phenyl)acetic acid]: 1 to 8 µM. The same measure for `Cc1noc(C)c1-c1cnc2c(c1)c(-c1ccc(C(C)(C)C(=O)O)cc1)cn2C(c1ccccn1)C1CCCC1` (centres unmarked) [P-0032, 2-(4-(1-(cyclopentyl(pyridin-2-yl)methyl)-5-(3,5-dimethylisoxazol-4-yl)-1H-pyrrolo[2,3-b]pyridin-3-yl)phenyl)-2-methylpropanoic acid]: 1 to 8 µM. On to `Cc1noc(C)c1-c1cnc2c(c1)c(-c1ccc(C3(C(=O)O)CC3)cc1)cn2C(c1ccccn1)C1CCCC1` (centres unmarked) [P-0033, 1-(4-(1-(cyclopentyl(pyridin-2-yl)methyl)-5-(3,5-dimethylisoxazol-4-yl)-1H-pyrrolo[2,3-b]pyridin-3-yl)phenyl)cyclopropane-1-carboxylic acid], for which the IC50 fell in the range of 1 to 8 µM. The figure for `Cc1noc(C)c1-c1cnc2c(c1)c(-c1ccc(C(F)(F)C(=O)O)cc1)cn2C(c1ccccn1)C1CCCC1` (centres unmarked) [P-0034, 2-(4-(1-(cyclopentyl(pyridin-2-yl)methyl)-5-(3,5-dimethylisoxazol-4-yl)-1H-pyrrolo[2,3-b]pyridin-3-yl)phenyl)-2,2-difluoroacetic acid] is 1 to 8 µM; for `COc1ncccc1-n1cc(-c2ccc(C(=O)O)cc2OC(F)(F)F)c2cc(-c3c(C)noc3C)cnc21` [P-0316, 4-(5-(3,5-dimethylisoxazol-4-yl)-1-(2-methoxypyridin-3-yl)-1H-pyrrolo[2,3-b]pyridin-3-yl)-3-(trifluoromethoxy)benzoic acid] it is 1 to 8 µM. As for `Cc1ncccc1-n1cc(-c2ccc(C(=O)O)cc2OC(F)(F)F)c2cc(-c3c(C)noc3C)cnc21` [P-0317, 4-(5-(3,5-dimethylisoxazol-4-yl)-1-(2-methylpyridin-3-yl)-1H-pyrrolo[2,3-b]pyridin-3-yl)-3-(trifluoromethoxy)benzoic acid], the IC50 was in the range of 8 to 1000 µM. As to `Cc1noc(C)c1-c1cnc2c(c1)c(-c1ccc(C(=O)O)cc1OC(F)(F)F)cn2-c1cnn(C)c1` [P-0318, 4-(5-(3,5-dimethylisoxazol-4-yl)-1-(1-methyl-1H-pyrazol-4-yl)-1H-pyrrolo[2,3-b]pyridin-3-yl)-3-(trifluoromethoxy)benzoic acid], the IC50 was in the range of 0.0001 to 1 µM. The figure for `Cc1noc(C)c1-c1cnc2c(c1)c(-c1ccc(C(=O)O)cc1OC(F)(F)F)cn2-c1cncnc1` [P-0319, 4-(5-(3,5-dimethylisoxazol-4-yl)-1-(pyrimidin-5-yl)-1H-pyrrolo[2,3-b]pyridin-3-yl)-3-(trifluoromethoxy)benzoic acid] is 1 to 8 µM.

For the compound `Cc1noc(C)c1-c1cnc2c(c1)c(-c1ccc(C(=O)O)cc1OC(F)(F)F)cn2-c1cnc(N)nc1` [P-0320, 4-(1-(2-aminopyrimidin-5-yl)-5-(3,5-dimethylisoxazol-4-yl)-1H-pyrrolo[2,3-b]pyridin-3-yl)-3-(trifluoromethoxy)benzoic acid], the IC50 lay in the range of 1 to 8 µM.

In the case of `Cc1noc(C)c1-c1cnc2c(c1)c(-c1ccc(C(=O)O)cc1OC(F)(F)F)cn2-c1cnc(N(C)C)nc1` [P-0321], the IC50 was 1 to 8 µM.

`Cc1noc(C)c1-c1cnc2c(c1)c(-c1ccc(C(=O)O)cc1OC(F)(F)F)cn2-c1ccc(C(=O)O)cc1` [P-0322, 4-(1-(4-carboxyphenyl)-5-(3,5-dimethylisoxazol-4-yl)-1H-pyrrolo[2,3-b]pyridin-3-yl)-3-(trifluoromethoxy)benzoic acid]: the IC50 lay in the range of 1 to 8 µM. Regarding `Cc1noc(C)c1-c1cnc2c(c1)c(-c1ccc(C(=O)O)cc1OC(F)(F)F)cn2-c1ccc(C(N)=O)cc1` [P-0323, 4-(1-(4-carbamoylphenyl)-5-(3,5-dimethylisoxazol-4-yl)-1H-pyrrolo[2,3-b]pyridin-3-yl)-3-(trifluoromethoxy)benzoic acid], the half-maximal inhibitory concentration (IC50) fell in the range of 1 to 8 µM. The figure for `COc1cc(C(=O)O)ncc1-c1cn(-c2ccncc2Cl)c2ncc(-c3c(C)noc3C)cc12` [P-0324, 5-(1-(3-chloropyridin-4-yl)-5-(3,5-dimethylisoxazol-4-yl)-1H-pyrrolo[2,3-b]pyridin-3-yl)-4-methoxypicolinic acid] is 1 to 8 µM; for `Cc1noc(C)c1-c1cnc2c(c1)c(-c1ccc(C(=O)O)cc1OCC(F)F)cn2[C@H]1CCOC1` [P-0325, (S)-3-(2,2-difluoroethoxy)-4-(5-(3,5-dimethylisoxazol-4-yl)-1-(tetrahydrofuran-3-yl)-1H-pyrrolo[2,3-b]pyridin-3-yl)benzoic acid] it is 8 to 1000 µM; for `CCn1cc(-n2cc(-c3ccc(C(=O)O)cc3OCC(F)F)c3cc(-c4c(C)noc4C)cnc32)c(C)n1` [P-0326, 3-(2,2-difluoroethoxy)-4-(5-(3,5-dimethylisoxazol-4-yl)-1-(1-ethyl-3-methyl-1H-pyrazol-4-yl)-1H-pyrrolo[2,3-b]pyridin-3-yl)benzoic acid] it is 8 to 1000 µM. In the case of `Cc1noc(C)c1-c1cnc2c(c1)c(-c1c(F)cc(C(=O)O)cc1OCC(F)F)cn2-c1ccccc1` [P-0327, 3-(2,2-difluoroethoxy)-4-(5-(3,5-dimethylisoxazol-4-yl)-1-phenyl-1H-pyrrolo[2,3-b]pyridin-3-yl)-5-fluorobenzoic acid], the IC50 fell in the range of 1 to 8 µM. For the compound `Cc1noc(C)c1-c1cnc2c(c1)c(-c1ccc(C(=O)O)cc1OCC(F)F)cn2-c1cnc(N2CCC2)nc1` [P-0328, 4-(1-(2-(azetidin-1-yl)pyrimidin-5-yl)-5-(3,5-dimethylisoxazol-4-yl)-1H-pyrrolo[2,3-b]pyridin-3-yl)-3-(2,2-difluoroethoxy)benzoic acid], the IC50 fell in the range of 8 to 1000 µM. The figure for `CCOc1cc(C(=O)O)nc(OCC)c1-c1cn(-c2ccc(F)cc2F)c2ncc(-c3c(C)noc3C)cc12` [P-0329, 5-(1-(2,4-difluorophenyl)-5-(3,5-dimethylisoxazol-4-yl)-1H-pyrrolo[2,3-b]pyridin-3-yl)-4,6-diethoxypicolinic acid] is 1 to 8 µM.

Regarding `CCOc1cc(C(=O)O)c(F)cc1-c1cn(-c2ccc(F)cc2F)c2ncc(-c3c(C)noc3C)cc12` [P-0330, 4-(1-(2,4-difluorophenyl)-5-(3,5-dimethylisoxazol-4-yl)-1H-pyrrolo[2,3-b]pyridin-3-yl)-5-ethoxy-2-fluorobenzoic acid], the IC50 was in the range of 1 to 8 µM. The figure for `Cc1noc(C)c1-c1cnc2c(c1)c(-c1c(Cl)cc(C(=O)O)cc1OCC(F)F)cn2-c1cnc(N2CCC2)nc1` [P-0331, 4-(1-(2-(azetidin-1-yl)pyrimidin-5-yl)-5-(3,5-dimethylisoxazol-4-yl)-1H-pyrrolo[2,3-b]pyridin-3-yl)-3-chloro-5-(2,2-difluoroethoxy)benzoic acid] is 0.0001 to 1 µM; for `Cc1noc(C)c1-c1cnc2c(c1)c(-c1c(Cl)cc(C(=O)O)cc1OCC(F)F)cn2-c1ccccc1` [P-0332, 3-chloro-5-(2,2-difluoroethoxy)-4-(5-(3,5-dimethylisoxazol-4-yl)-1-phenyl-1H-pyrrolo[2,3-b]pyridin-3-yl)benzoic acid] it is 1 to 8 µM; for `Cc1noc(C)c1-c1cnc2c(c1)c(-c1c(Cl)cc(C(=O)O)cc1OCC(F)F)cn2[C@H]1CCOC1` [P-0333, (S)-3-chloro-5-(2,2-difluoroethoxy)-4-(5-(3,5-dimethylisoxazol-4-yl)-1-(tetrahydrofuran-3-yl)-1H-pyrrolo[2,3-b]pyridin-3-yl)benzoic acid] it is 8 to 1000 µM. Consider `Cc1noc(C)c1-c1cnc2c(c1)c(-c1ccc(C(=O)O)cc1OC1CCC1)cn2-c1ncccc1C#N` [P-0334, 4-(1-(3-cyanopyridin-2-yl)-5-(3,5-dimethylisoxazol-4-yl)-1H-pyrrolo[2,3-b]pyridin-3-yl)-3-cyclobutoxybenzoic acid], for which the IC50 lay within 8 to 1000 µM. The same measure for `Cc1noc(C)c1-c1cnc2c(c1)c(-c1ccc(C(=O)O)cc1OC(F)(F)F)cn2C1(CC#N)CCC1` [P-0335, 4-(1-(1-(cyanomethyl)cyclobutyl)-5-(3,5-dimethylisoxazol-4-yl)-1H-pyrrolo[2,3-b]pyridin-3-yl)-3-(trifluoromethoxy)benzoic acid]: 8 to 1000 µM; for `Cc1noc(C)c1-c1cnc2c(c1)c(-c1ccc(C(=O)O)cc1OC(C)C)cn2-c1ncccc1C#N` [P-0336, 4-(1-(3-cyanopyridin-2-yl)-5-(3,5-dimethylisoxazol-4-yl)-1H-pyrrolo[2,3-b]pyridin-3-yl)-3-isopropoxybenzoic acid]: 8 to 1000 µM.
